One data set has as its system MARV-Angola. The conditions noted are these: guinea pig, in vivo.
The next data set concerns MARV Angola. Kind of data set: organism not typed. In kind it is cell-based, Marburg virus. The conditions noted are these: HeLa.
Data set [1] is described as follows: in vivo. The conditions noted are these: cynomolgus monkey, im.
A short description of data set [2]: in vitro. The conditions noted are these: human, s9, half-life (t1/2).
Data set [3] can be described thus: in vivo. The conditions noted are these: mouse, iv.
The test system of a further data set is MARV Musoke. Briefly: organism not typed. It is filed as cell-based, Marburg virus. The conditions noted are these: HeLa.
The subject of data set [4] is EBOV minigenome RNA replicon. In kind it is cell-based, Ebola virus.
A short description of data set [5]: in vitro. The conditions noted are these: human.
The test system of another data set is MARV Ci67. Kind of data set: organism not typed. The conditions noted are these: HeLa. It is filed as cell-based, Marburg virus.
Another data set has as its target hERG ion channel (Homo sapiens, UniProt Q12809). Kind of data set: hERG ion channel current. The conditions noted are these: 30 µM; data not shown. In kind it is biochemical.
In a further data set the test system is human lymphocytes. The conditions noted are these: 787 µM.
Data set [6] can be described thus: in vitro. The conditions noted are these: dog, pH 1.
The test system of the next data set is JUNV Romero. Briefly: organism not typed. The conditions noted are these: HeLa. In kind it is cell-based, Junín virus.
The subject of a further data set is Marburg virus - Musoke. It is filed as cell-based.
A short description of data set [7]: in vivo. The conditions noted are these: Sprague-Dawley, rat.
Another data set relates to EBOV Kikwit. Kind of data set: microbe, parasite or virus in culture. In kind it is cell-based, Ebola virus. The conditions noted are these: Zaire ebolavirus, HeLa.
For data set [8], the system named is Rift Valley fever virus (ZH501). The conditions noted are these: mouse, in vivo.
The test system of another data set is SUDV Boniface. Briefly: microbe, parasite or virus in culture. It is filed as cell-based. The conditions noted are these: Sudan ebolavirus, HeLa.
Another data set concerns MARV-Musoke. The conditions noted are these: guinea pig, in vivo.
In another data set the test system is HeLa cells. The conditions noted are these: human.
Another data set concerns RVFV ZH5018. Briefly: microbe, parasite or virus in culture. The conditions noted are these: Rift Valley fever virus, HeLa. It is filed as cell-based.
Another data set addresses HCV NS5B RNA polymerase (Hepatitis C virus genotype 1b, UniProt P26663). In kind it is biochemical.
The conditions of data set [9]: rat, in vivo, im.
The subject of data set [10] is filoviruses. The conditions noted are these: in vivo; cited from earlier work.
Data set [11] deals with filoviruses. The conditions noted are these: cited from earlier work.

Read-outs that look alike come from different tables or passages of the source. A value given as a limit tells only on which side of the number the result lay.

Sequence of HCV NS5B RNA polymerase (P26663 2420-2989 limits assumed): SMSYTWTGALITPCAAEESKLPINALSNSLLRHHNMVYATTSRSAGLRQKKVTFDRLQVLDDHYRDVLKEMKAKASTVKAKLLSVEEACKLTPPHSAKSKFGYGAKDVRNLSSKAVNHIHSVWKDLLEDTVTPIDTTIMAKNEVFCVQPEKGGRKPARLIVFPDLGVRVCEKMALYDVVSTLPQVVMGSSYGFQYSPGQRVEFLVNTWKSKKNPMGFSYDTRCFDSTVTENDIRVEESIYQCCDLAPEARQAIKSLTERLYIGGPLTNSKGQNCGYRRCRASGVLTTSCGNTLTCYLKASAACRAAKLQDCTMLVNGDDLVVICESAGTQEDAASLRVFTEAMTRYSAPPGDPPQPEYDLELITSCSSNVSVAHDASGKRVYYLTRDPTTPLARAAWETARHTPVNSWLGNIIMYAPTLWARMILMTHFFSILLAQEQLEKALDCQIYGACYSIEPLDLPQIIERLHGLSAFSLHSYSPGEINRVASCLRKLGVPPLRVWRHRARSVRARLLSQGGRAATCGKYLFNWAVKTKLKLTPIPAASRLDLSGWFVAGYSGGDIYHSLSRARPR
Sequence of hERG ion channel (Q12809 whole entry): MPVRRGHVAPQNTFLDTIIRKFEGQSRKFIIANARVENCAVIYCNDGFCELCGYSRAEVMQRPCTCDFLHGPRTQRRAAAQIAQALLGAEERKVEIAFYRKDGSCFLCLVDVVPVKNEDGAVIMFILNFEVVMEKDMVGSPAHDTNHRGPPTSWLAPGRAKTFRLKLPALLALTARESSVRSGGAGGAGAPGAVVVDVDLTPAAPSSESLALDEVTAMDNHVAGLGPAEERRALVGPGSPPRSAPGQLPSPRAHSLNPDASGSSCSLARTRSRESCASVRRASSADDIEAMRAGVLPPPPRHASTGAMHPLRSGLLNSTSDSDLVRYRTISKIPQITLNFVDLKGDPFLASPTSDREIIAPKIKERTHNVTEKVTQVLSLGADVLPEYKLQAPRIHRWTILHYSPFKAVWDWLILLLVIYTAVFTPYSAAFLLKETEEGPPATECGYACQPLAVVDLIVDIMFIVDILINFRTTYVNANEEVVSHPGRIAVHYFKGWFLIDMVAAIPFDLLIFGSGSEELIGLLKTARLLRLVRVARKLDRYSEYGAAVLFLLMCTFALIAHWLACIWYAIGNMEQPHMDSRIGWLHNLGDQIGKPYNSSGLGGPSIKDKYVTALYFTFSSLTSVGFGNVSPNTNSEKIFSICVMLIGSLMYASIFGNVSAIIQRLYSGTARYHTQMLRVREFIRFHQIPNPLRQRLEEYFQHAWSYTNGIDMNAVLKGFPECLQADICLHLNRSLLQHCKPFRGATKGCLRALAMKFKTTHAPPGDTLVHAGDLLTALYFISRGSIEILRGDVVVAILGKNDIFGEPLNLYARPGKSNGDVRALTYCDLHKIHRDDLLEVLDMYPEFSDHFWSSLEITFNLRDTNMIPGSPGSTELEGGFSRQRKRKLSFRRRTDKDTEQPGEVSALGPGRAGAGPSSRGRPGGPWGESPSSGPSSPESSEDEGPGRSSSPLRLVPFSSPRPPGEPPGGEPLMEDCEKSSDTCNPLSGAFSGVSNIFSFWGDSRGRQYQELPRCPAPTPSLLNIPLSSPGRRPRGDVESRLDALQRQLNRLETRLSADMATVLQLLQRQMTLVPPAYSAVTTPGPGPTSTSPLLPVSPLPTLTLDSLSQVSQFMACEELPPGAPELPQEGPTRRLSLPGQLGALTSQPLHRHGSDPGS

On to `Nc1ncnc2c([C@@H]3N[C@H](CO)[C@@H](O)[C@H]3O)c[nH]c12` [BCX4430, (2S,3S,4R,5R)-2-(4-amino-5H-pyrrolo[3,2-d]pyrimidin-7-yl)-5-(hydroxymethyl)pyrrolidine-3,4-diol], for which the post-exposure protection entry in the data set on MARV-Angola and in the data set on MARV-Musoke was “significant post-exposure protection” in each case. The protection result in the data set on MARV-Angola is recorded as “protected”. For the same compound, the concentration for a half-maximal effect (EC50) in the data set on MARV Angola was 5 µM; in the data set on MARV Musoke it was 4.4 µM; in the data set with MARV Ci67 it was 6.7 µM; with JUNV Romero, 42.2 µM; in the data set with EBOV Kikwit it was 11.8 µM; with SUDV Boniface, 3.4 µM. This compound displayed an EC50 with RVFV ZH5018 of 41.6 µM. Further, the EC90 with MARV Angola is 12.3 µM; with MARV Musoke, 10.5 µM; in the data set on MARV Ci67, 16.1 µM; in the data set with JUNV Romero, above 100 µM; in the data set with EBOV Kikwit, 25.4 µM; with SUDV Boniface, 10.3 µM. It took 98 µM to reach the 90% level in the data set with RVFV ZH5018 (EC90). Further, the half-life was below 5 min in the data set “in vivo [1]”, above 54 min in the data set “in vitro [2]”, below 5 min in “in vivo [3]” and below 5 min in the data set “in vivo [7]”. In addition, the “GFP expression in EBOV minigenome replicon assay” value in data set [4] is on record as “reduces expression of green fluorescent protein”. For the same compound, the values for the CC50 in “in vitro [5]”, in “in vitro [6]” and in the data set with HeLa cells were above 296 µM, above 296 µM and 242 µM, respectively. Besides, the “inhibition of hERG ion channel current” value at hERG ion channel is given as “did not inhibit”. For the same compound, in the data set on human lymphocytes, the chromosomal aberrations result was “no detectable chromosomal aberrations”. Moreover, the “production of infectious MARV virus” value in the data set with Marburg virus - Musoke is recorded as “no detectable infectious MARV virus”. Further, in data set [8], the “protection against lethal Rift Valley fever virus challenge” value is “protected”. Besides, the “incorporation of BCX4430-MP into human RNA or DNA” value in the data set with human RNA or DNA is recorded as “no evidence of BCX4430-MP incorporation”. Besides, the animals surviving with MARV (Musoke variant) (cynomolgus monkey, in vivo) is 83%; in the data set with MARV (Musoke variant) (n = 6), “All animals”. Also, the “haemorrhagic disease manifestations (PT, aPTT, serum AST, bilirubin) vs vehicle” value with MARV (Musoke variant) (cynomolgus monkey, in vivo) is on record as “ameliorated”. Also, the “serum MARV burden” value with MARV (Musoke variant) (cynomolgus monkey, in vivo) is “significantly and substantially reduced”. Besides, the tolerability result in the data set on MARV (Musoke variant) (cynomolgus monkey, in vivo) is given as “well tolerated”.
`Nc1ncnc2c([C@@H]3N[C@H](COP(=O)(O)OP(=O)(O)OP(=O)(O)O)[C@@H](O)[C@H]3O)c[nH]c12` [BCX4430-TP]: on HCV NS5B RNA polymerase, the “RNA chain synthesis by HCV RNA polymerase” value is recorded as “induces premature termination”. In data set [9], the “half-life in the liver” value was 6.2 h.
`NC(=O)c1nc(F)c[nH]c1=O` [T-705, favipiravir]: in the data set on filoviruses [10], the “protection against filoviruses in rodents” value is listed as “high-degree of protection”.
For `Nc1nccc2c1ncn2C1C=C(CO)C(O)C1O` (stereo not shown) [c^3-Npc A, 3-deazaneplanocin A], the “protection against filoviruses in rodents” value with filoviruses [10] is on record as “high-degree of protection”.
With `NC(=O)c1ncn([C@@H]2O[C@H](CO)[C@@H](O)[C@H]2O)n1` [ribavirin], in the data set on filoviruses [11], the activity against filoviruses entry is “not active”.

By EC50 is commonly meant the concentration that produces a half-maximal response. Broadly, the EC90 is the concentration at which the effect reaches the 90% level. High values mean weaker potency, low ones greater potency. One may read the half-life as how long it takes for the measured level to halve. Low readings indicate fast loss, high ones slow loss.

The record behind these values is article PMC7095208 (Nature, 2014).
